Patent publication US11440888B2, “Microbiocidal quinoline carboxamide derivatives” (SYNGENTA CROP PROTECTION AG, priority 2018, dated 2022)

First: Cc1c(NC(=O)C(Cl)(Cc2ccccc2)CC(F)(F)F)cnc2c(F)cccc12 (stereo not drawn) [E.01, 2-benzyl-2-chloro-4,4,4-trifluoro-N-(8-fluoro-4-methyl-3-quinolyl)butanamide]
Second: Cc1c(NC(=O)C(Cl)(Cc2ccccc2)CC(C)C)cnc2c(F)cccc12 (stereo not drawn) [E.05, 2-benzyl-2-chloro-N-(8-fluoro-4-methyl-3-quinolyl)-4-methyl-pentanamide]
The melting point of the first is higher: 179 to 181 °C for the first, 140 to 141 °C for the second.

`O=C(Nc1cnc2c(F)cccc2c1)C(Cl)(Cc1ccccc1)CC(F)(F)F` (stereo not drawn) [E.06, 2-benzyl-2-chloro-4,4,4-trifluoro-N-(8-fluoro-3-quinolyl)butanamide] gave a melting point of 106 to 108 °C.
